Data on 24 compounds can be found in patent publication US20260070929A1, “METHODS AND COMPOSITIONS FOR MODULATING KRAS(G12D)” (Ranok Therapeutics (Hangzhou) Co. LTD., priority 2022, published 2026).

The target of assay [1] is T1, KRAS(G12D)/SOS1 (Homo sapiens, UniProt P01116, G12D).
T1 construct: purchased Cisbio 63ADK000CB17PEH
In words: KRAS(G12D)/SOS1 homogeneous time-resolved fluorescence (HTRF) assay. Particulars: absence of GTP; 4° C., 3 hr. Type of assay: binding. The method, then:
Binding of test compounds to KRAS(G12D) target protein, which in turn blocks KRAS(G12D) interaction with the SOS1 protein, was measured in the absences of GTP by homogeneous time-resolved fluorescence using the KRAS-G12D/SOS1 Binding Assay Kit (Cisbio, 63ADK000CB17PEH), following the manufacturer's instructions, except as noted. 3-fold serial dilutions of each test compound were prepared ranging from 20 µM to 1.02 nM. The test compound was mixed and incubated with reaction components, incubated in a sealed plate at 4° C. for 3 hr and fluorescence was measured using a PerkinElmer Envision plate reader. The KRAS(G12D)-SOS1 IC50 values (the concentration of 50% of the maximal inhibition) were calculated using GraphPad Prism 7 software.
(In general: In TR-FRET formats the signal depends on donor and acceptor labels being close together.)

Assay [2] relates to AGS gastric carcinoma cells [heterozygous G12D]. In words: Cancer cell line proliferation (CellTiter-Glo), AGS. Type of assay: cell-based. Particulars: Homo sapiens, 72 hr treatment, read-out: AGS CTG (EC50). Here is the method: (§1) The following cancer cell lines were employed: AGS gastric carcinoma [heterozygous G12D](ATCC, CRL-1739); A-427 lung carcinoma [heterozygous G12D](ATCC, HTB-53); ASPC1 pancreatic adenocarcinoma [homozygous G12D](ATCC, CRL-1682) and SW1990 pancreatic adenocarcinoma [homozygous G12D](ATCC CRL-2172). Cell lines were cultured essentially according to ATCC recommendations.
(§2) AGS, A-427, ASPC1, SW1990, and GP2D cells were plated in 96-well tissue culture plates at 4,000 cells/well and incubated at 37° C./5% CO2 for 72 hr in 100 μl of media. 3-fold serial dilutions of each test compound were prepared ranging from 20 μM to 1.02 nM. Each cell line was then treated with test compounds at various concentrations with a final concentration of 0.5% DMSO/well, and then incubated at 37° C./5% CO2 for 72 hr. 100 µl of CellTiter-Glo® Reagent (Promega Corporation, Madison, WI) was added to each well and processed according manufacturer's protocol. Results were analyzed and EC50 values were calculated in GraphPad 7 software.
Background: In ATP-based viability assays light output follows the ATP content of the culture.

Assay [3] relates to A-427 lung carcinoma cells [heterozygous G12D]. The experiment in a line: Cancer cell line proliferation (CellTiter-Glo), A-427. Particulars: Homo sapiens, A-427 cells, 72 hr treatment, read-out: A427 CTG (EC50). In kind it is cell-based. The method, then: as §1, §2

Some results are limits rather than exact numbers.

T1 sequence (P01116 1-188 isoform P01116-2 G12D): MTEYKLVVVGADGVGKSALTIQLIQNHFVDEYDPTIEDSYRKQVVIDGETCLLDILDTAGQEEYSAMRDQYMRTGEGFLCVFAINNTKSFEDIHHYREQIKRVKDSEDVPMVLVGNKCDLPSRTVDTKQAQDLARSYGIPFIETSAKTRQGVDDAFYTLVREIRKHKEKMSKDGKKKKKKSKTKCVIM

In the case of `CC(C)NC(=O)c1nnc(-c2cc(C(C)C)c(O)cc2O)n1-c1ccc(CN2CCN([C@H]3C[C@@H](COc4nc(N5CC6CCC(C5)N6)c5cnc(-c6ccccc6C(F)(F)F)c(F)c5n4)N(C)C3)CC2)cc1` [Compound 88], the IC50 (as a rule, the concentration that gives 50% inhibition) in assay [1] was greater than 1000 nM. Also, the EC50 (in general, the midpoint of the concentration-response curve) was less than 100 nM in assay [2] and 100 to 1000 nM in assay [3].
In assay [1], `C#Cc1cccc2cc(O)cc(-c3ncc4c(N5CC6CCC(C5)N6)nc(OC[C@@H]5C[C@H](N6CCN(Cc7ccc8c(c7)CN(C(=O)c7cc(C(C)C)c(O)cc7O)C8)CC6)CN5C)nc4c3F)c12` [Compound 86] gave an IC50 of less than 100 nM. Moreover, the 50% effective concentration (EC50) in assay [2] and in assay [3] was 100 to 1000 nM in each case.
In the case of `CCc1cc(-c2nnc(C(=O)NCC(F)(F)F)n2-c2ccc(CN3CCN([C@H]4C[C@@H](COc5nc(N6CC7CCC(C6)N7)c6cnc(-c7cccc(F)c7C)c(F)c6n5)N(C)C4)CC3)cc2)c(O)cc1O` [Compound 79], the IC50 in assay [1] was greater than 1000 nM. Further, the EC50 in assay [2] and in assay [3] was 100 to 1000 nM each time.
As to `C#Cc1cccc2cc(O)cc(-c3ncc4c(N5CC6CCC(C5)N6)nc(OC[C@@H]5C[C@H](N6CCN(Cc7ccc(-n8c(C(=O)NC(C)C(F)(F)F)nnc8-c8cc(C(C)C)c(O)cc8O)cc7)CC6)CN5C)nc4c3F)c12` (stereo partly drawn) [Compound 98], in assay [1], the IC50 is less than 100 nM. The EC50 in assay [2] and in assay [3] was 100 to 1000 nM in each case.
`C#Cc1cccc2cc(O)cc(-c3ncc4c(N5CC6CCC(C5)N6)nc(OCC5(CN6CCC(C(=O)N7CCN(Cc8ccc9c(c8)CN(C(=O)c8cc(C(C)C)c(O)cc8O)C9)CC7)CC6)CC5)nc4c3F)c12` [Example 3, 4-{5-[(4-{1-[(1-{[(4-{3,8-diazabicyclo[3.2.1]octan-3-yl}-7-(8-ethynyl-3-hydroxynaphthalen-1-yl)-8-fluoropyrido[4,3-d]pyrimidin-2-yl)oxy]methyl}cyclopropyl)methyl]piperidine-4-carbonyl}piperazin-1-yl)methyl]-1,3-dihydroisoindole-2-carbonyl}-6-isopropylbenzene-1,3-diol]: the IC50 in assay [1] is less than 100 nM. The EC50 in assay [2] was less than 100 nM; in assay [3], 100 to 1000 nM.
As to `C#Cc1cccc2cc(O)cc(-c3ncc4c(N5CC6CCC(C5)N6)nc(OC[C@@H]5C[C@H](N6CCN(Cc7ccc(-n8c(C(=O)NCC(F)(F)F)nnc8-c8cc(CC)c(O)cc8O)cc7)CC6)CN5C)nc4c3F)c12` [Compound 99], the concentration for half-maximal inhibition (IC50) in assay [1] is less than 100 nM. Also, the EC50 in assay [2] and in assay [3] was 100 to 1000 nM throughout.
With `C#Cc1cccc2cccc(-c3ncc4c(N5CC6CCC(C5)N6)nc(OC[C@@H]5C[C@H](N6CCN(CCN(CC)C(=O)c7cc(C(C)C)c(O)cc7O)CC6)CN5C)nc4c3F)c12` [Compound 80], the half-inhibitory concentration (IC50) in assay [1] was less than 100 nM. Moreover, the EC50 in assay [2] and in assay [3] was greater than 1000 nM each time.
For `CCNC(=O)c1nnc(-c2cc(C(C)C)c(O)cc2O)n1-c1ccc(CN2CCN([C@H]3C[C@@H](COc4nc(N5CC6CNC(C6)C5)c5cnc(-c6cc(O)cc7ccccc67)c(F)c5n4)N(C)C3)CC2)cc1` (stereo partly drawn) [Compound 85], the IC50 in assay [1] was greater than 1000 nM. The EC50 in assay [2] and in assay [3] was 100 to 1000 nM in each case.
`C#Cc1cccc2cc(O)cc(-c3ncc4c(N5CC6CCC(C5)N6)nc(OCC5(CN6CCC(C(=O)N7CCN(Cc8ccc(-n9c(C(=O)NCC(F)(F)F)nnc9-c9cc(C(C)C)c(O)cc9O)cc8)CC7)CC6)CC5)nc4c3F)c12` [Compound 119] yielded an IC50 in assay [1] of less than 100 nM. Moreover, the EC50 in assay [2] is less than 100 nM; in assay [3], 100 to 1000 nM.
For the compound `CC(C)c1cc(-c2nnc(C(=O)NCC(F)(F)F)n2-c2ccc(CN3CCN([C@H]4C[C@@H](COc5nc(N6CC7CCC(C6)N7)c6cnc(-c7cccc8cccc(F)c78)c(F)c6n5)N(C)C4)CC3)cc2)c(O)cc1O` [Compound 109], in assay [1], the IC50 lay within 100 to 1000 nM. The EC50 in assay [2] is less than 100 nM; in assay [3], 100 to 1000 nM.
For `CCNC(=O)c1nnc(-c2cc(C(C)C)c(O)cc2O)n1-c1ccc(CN2CCN([C@H]3C[C@@H](COc4nc(N5CC6CCC(C5)N6)c5cnc(-c6cccc7cccc(F)c67)c(F)c5n4)N(C)C3)CC2)cc1` [Compound 77], in assay [1], the IC50 was 100 to 1000 nM. Moreover, the EC50 in assay [2] was less than 100 nM; in assay [3], 100 to 1000 nM.
In assay [1], `CCc1cc(-c2nnc(C(=O)NCC(F)(F)F)n2-c2ccc(CN3CCN([C@H]4C[C@@H](COc5nc(N6CC7CCC(C6)N7)c6cnc(-c7cccc8cccc(OC)c78)c(F)c6n5)N(C)C4)CC3)cc2)c(O)cc1O` [Compound 105] showed an IC50 greater than 1000 nM. Besides, the EC50 in assay [2] and in assay [3] was 100 to 1000 nM in each case.
`C#Cc1cccc2cccc(-c3ncc4c(N5CC6CCC(C5)N6)nc(OCCN5CCN(CCN(CC)C(=O)c6cc(C(C)C)c(O)cc6O)CC5)nc4c3F)c12` [Compound 75] gave an IC50 in assay [1] of 100 to 1000 nM. For the same compound, the EC50 in assay [2] and in assay [3] was greater than 1000 nM each time.
With `CC(C)c1cc(C(=O)N2Cc3ccc(CN4CCN(C[C@H]5CC[C@@H](COc6nc(N7CC8CCC(C7)N8)c7cnc(-c8cccc9cccc(F)c89)c(F)c7n6)N5C)CC4)cc3C2)c(O)cc1O` [Compound 76], in assay [1], the IC50 fell in the range of 100 to 1000 nM. Further, the 50% effective concentration (EC50) in assay [2] and in assay [3] was 100 to 1000 nM throughout.
`CC(C)c1cc(C(=O)N2Cc3ccc(CN4CCC(C(=O)N5CCN([C@H]6C[C@@H](COc7nc(N8CC9CCC(C8)N9)c8cnc(-c9ccccc9C(F)(F)F)c(F)c8n7)N(C)C6)CC5)CC4)cc3C2)c(O)cc1O` [Compound 91] showed an IC50 in assay [1] greater than 1000 nM. For the same compound, the EC50 in assay [2] and in assay [3] was 100 to 1000 nM throughout.
`CCNC(=O)c1nnc(-c2cc(C(C)C)c(O)cc2O)n1-c1ccc(CN2CCN(C[C@H]3CC[C@@H](COc4nc(N5CC6CCC(C5)N6)c5cnc(-c6cccc7cccc(C)c67)c(F)c5n4)N3C)CC2)cc1` [Compound 72] registered an IC50 in assay [1] of 100 to 1000 nM. Also, the EC50 in assay [2] and in assay [3] was less than 100 nM in each case.
Take `C#Cc1cccc2cc(O)cc(-c3ncc4c(N5CC6CCC(C5)N6)nc(OC[C@@H]5C[C@H](N6CCN(Cc7ccc(-n8c(C(=O)NC(C)C)nnc8-c8cc(C(C)C)c(O)cc8O)cc7)CC6)CN5C)nc4c3F)c12` [Compound 87]: the IC50 in assay [1] is less than 100 nM. Besides, the EC50 in assay [2] and in assay [3] was 100 to 1000 nM each time.
The compound `Cc1c(F)cccc1-c1ncc2c(N3CC4CCC(C3)N4)nc(OC[C@@H]3C[C@H](N4CCN(Cc5ccc(-n6c(C(=O)NC(C)C(F)(F)F)nnc6-c6cc(C(C)C)c(O)cc6O)cc5)CC4)CN3C)nc2c1F` (stereo partly drawn) [Compound 78] displayed an IC50 in assay [1] greater than 1000 nM. For the same compound, the EC50 in assay [2] and in assay [3] was 100 to 1000 nM each time.
In assay [1], `CC(C)c1cc(-c2nnc(C(=O)NC(C)C(F)(F)F)n2-c2ccc(CN3CCN([C@H]4C[C@@H](COc5nc(N6CC7CCC(C6)N7)c6cnc(-c7cc(O)cc8ccccc78)c(F)c6n5)N(C)C4)CC3)cc2)c(O)cc1O` (stereo partly drawn) [Compound 100] came in with a half-maximal inhibitory concentration (IC50) of less than 100 nM. The EC50 in assay [2] is less than 100 nM; in assay [3] it was 100 to 1000 nM.
The compound `Cc1cccc2cccc(-c3ncc4c(N5CC6CCC(C5)N6)nc(OC[C@@H]5CC[C@H](CN6CCN(Cc7ccc8c(c7)CN(C(=O)c7cc(C(C)C)c(O)cc7O)C8)CC6)N5C)nc4c3F)c12` [Compound 71] displayed an IC50 in assay [1] of 100 to 1000 nM. The EC50 in assay [2] and in assay [3] was 100 to 1000 nM throughout.
As to `CCNC(=O)c1nnc(-c2cc(C(C)C)c(O)cc2O)n1-c1ccc(CN2CCC(C(=O)N3CCN([C@H]4C[C@@H](COc5nc(N6CC7CCC(C6)N7)c6cnc(-c7ccccc7C(F)(F)F)c(F)c6n5)N(C)C4)CC3)CC2)cc1` [Compound 89], the IC50 in assay [1] was greater than 1000 nM. Further, the EC50 in assay [2] and in assay [3] was less than 100 nM each time.
Take `C#Cc1cccc2cc(O)cc(-c3ncc4c(N5CC6CCC(C5)N6)nc(OC[C@@H]5C[C@H](N6CCN(C(=O)C7CCN(Cc8ccc9c(c8)CN(C(=O)c8cc(C(C)C)c(O)cc8O)C9)CC7)CC6)CN5C)nc4c3F)c12` [Compound 97]: in assay [1], the IC50 is less than 100 nM. The EC50 in assay [2] and in assay [3] was 100 to 1000 nM in each case.
Take `CC(C)c1cc(-c2nnc(C(=O)NC(C)C(F)(F)F)n2-c2ccc(CN3CCN([C@H]4C[C@@H](COc5nc(N6CC7CCC(C6)N7)c6cnc(-c7cccc8cccc(F)c78)c(F)c6n5)N(C)C4)CC3)cc2)c(O)cc1O` (stereo partly drawn) [Compound 93]: the IC50 in assay [1] is 100 to 1000 nM. In addition, the EC50 is less than 100 nM in assay [2] and 100 to 1000 nM in assay [3].
`Cc1cccc(-c2ncc3c(N4CC5CCC(C4)N5)nc(OC[C@@H]4C[C@H](N5CCN(Cc6ccc(-n7c(C(=O)NC(C)C(F)(F)F)nnc7-c7cc(C(C)C)c(O)cc7O)cc6)CC5)CN4C)nc3c2F)c1C` (stereo partly drawn) [Compound 82] displayed an IC50 in assay [1] greater than 1000 nM. The EC50 in assay [2] and in assay [3] was 100 to 1000 nM throughout.
